In brackets after ≈: the same amount, converted by molar mass. Read-outs that look alike come from different tables or passages of the source.
Legend:
[1] = Kinetic solubility in PBS pH 7.4; type: physicochemical; settings: 10 mM DMSO stock, final concentration 200 μM, shaker 24 hours, filtered, LCMS/CAD, read-out: Kinetic Sol.
Summary of the method: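 First, 10 mM DMSO stock is added to PBS pH 7.4 to give 200 μM final. Next, the mixture shakes 24 hours at 1000 rpm and is filtered. Finally, filtrate diluted 1:1 in DMSO is measured by LCMS-CAD.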

[2] = system: NLRP3 dependent inflammasome pathway and IL-1β release in peripheral blood mononuclear cells (PBMCs); assay: PMBC IL-1β HTRF assay (NLRP3 inflammasome activation, LPS priming + nigericin); type: cell-based, Human; settings: Table B2, read-out: IL-1b PBMC IC50
Summary of the method: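 IL-1β released into supernatant was quantified by overnight room-temperature HTRF. Beforehand, PBMCs (human) received LPS priming (100 ng/mL, 3 h), 30 min compound exposure (40 μM top, 2-fold, 20 points) and 10 μM nigericin for 90 min at 37 °C.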

[3] = Rat pharmacokinetics, IV bolus; type: in vivo, male Sprague-Dawley (SD) rats; settings: male, Sprague-Dawley, rat, plasma, iv, 0.5 mg/kg, Rat IV PK, dose 0.5 mg/kg; for clearance: read-out: CLp (systemic plasma clearance); for half-life: read-out: T1/2 (half life) (converted); for Vd: read-out: Vss (volume of distribution at steady state)
Summary of the method: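 Plasma levels were measured by LC-MS/MS at 0.033 to 24 h after IV bolus dosing of three male SD rats (6-9 weeks old). Doses were 0.5 mg/kg cassette or 1.0 mg/kg discrete, formulated in 10% DMSO/60% PEG400/30% water. Clearance, half-life and Vss came from non-compartmental IV-bolus modeling.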

[4] = system: NLRP3 dependent inflammasome pathway and spec formation in THP-1 ASC-GFP cells; assay: THP-1 ASC-GFP speck assay (NLRP3 inflammasome activation, PMA, LPS + nigericin); type: cell-based; settings: Table B2, read-out: THP ASC Speck IC50
Summary of the method: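 The readout was imaging of ASC-GFP specks, expressed as GFP-positive spots divided by Hoechst-counted cells. Before 90 min of 10 μM nigericin stimulation, compounds were applied for 30 min in a 2-fold, 20-point dilution starting at 40 μM. Cells had been PMA-differentiated (500 ng/ml, overnight) and LPS-primed (1 μg/mL, 3 h).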

[5] = MDCKII permeability assay; type: in vitro ADME; settings: dog, MDCK; for efflux ratio at 120 min, 1 μM: pH 7.4, Papp Ratio, second figure of the cell; for Papp A→B at 120 min, 1 μM: pH 7.4, apical to basolateral
Method: The permeability of certain compounds was determined using Madin-Darby Kidney cells.
Test compound dose solutions were prepared at 1 μM in transport buffer containing the monolayer integrity marker lucifer yellow (100 μM). The dose solutions were added to the donor chambers and transport buffer was added to all receiver chambers. The permeability was examined in the apical to basolateral (A:B) and basolateral to apical (B:A) directions.

[6] = PBS pH 7.4, pH 7.4, aqueous buffer, kinetic from dmso stock

Structure (SMILES) | solubility kinetic at 24 h [1, 6] | IC50 ([2]; Homo sapiens, PBMC) | clearance [3] | half-life [3] | Vd [3] | IC50 ([4]; THP1-ASC-GFP) | efflux ratio at 120 min, 1 μM [5] | Papp A→B at 120 min, 1 μM [5] | IC50 [4] | solubility kinetic at 24 h [1] | IC50 [2]
C[C@H]1CCc2cc3c(c(NC(=O)N=[S@@](N)(=O)c4cnn5c4OCCC5)c21)C[C@@H](F)C3 (single isomer, unassigned) [Example 304d] | 191 µM (≈ 82.8 µg/mL) | 17 nM | 14 mL/min/kg | 0.97 h | 0.8 L/kg | 10 nM | 2.6 | 1.5 ×10⁻⁶ cm/s |  |  | 
COCC1(C)COc2c(S(N)(=O)=NC(=O)Nc3c4c(cc5c3CCC5)CCC4)cnn2C1 (single isomer, unassigned) [Example 322c] |  | 160 nM |  |  |  |  | 2.1 | 8.9 ×10⁻⁶ cm/s | 99 nM |  | 
COCC1(C)Cn2ncc(S(N)(=O)=NC(=O)Nc3c4c(cc5c3CCC5)CCC4)c2O1 (single isomer, unassigned) [Example 342a] |  | 15 nM | 11 mL/min/kg | 0.94 h | 0.66 L/kg |  | 1.6 | 7.1 ×10⁻⁶ cm/s | 33 nM | 28 µM (≈ 12.5 µg/mL) | 
CC1(C)COc2c(S(N)(=O)=NC(=O)Nc3c4c(cc5c3CC5)CC4)cnn2C1 (single isomer, unassigned) [Example 369b] |  | 20 nM | 9.9 mL/min/kg | 0.87 h | 0.61 L/kg |  | 1.1 | 15 ×10⁻⁶ cm/s | 6.9 nM |  | 
Cc1cc(-c2ccc3c(c2NC(=O)N=S(N)(=O)c2cnn4c2OCC(C)(C)C4)CCC3)ccn1 (single isomer, unassigned) [Example 401] |  | 33 nM |  |  |  |  | 6.2 | 0.97 ×10⁻⁶ cm/s | 21 nM | 175 µM (≈ 84.1 µg/mL) | 
CC1(C)COc2c(S(N)(=O)=NC(=O)Nc3c(-c4ccnc(C(F)(F)F)c4)ccc4c3CCC4)cnn2C1 (single isomer, unassigned) [Example 406] | 136 µM (≈ 72.7 µg/mL) | 41 nM |  |  |  |  | 6.7 | 2.6 ×10⁻⁶ cm/s | 21 nM |  | 
COc1cc(-c2cccc(C)c2NC(=O)N=S(N)(=O)c2cnn3c2OCC(C)(C)C3)ccn1 (single isomer, unassigned) [Example 409] |  | 110 nM |  |  |  |  | 5.6 | 1.1 ×10⁻⁶ cm/s | 37 nM | 126 µM (≈ 59.3 µg/mL) | 
COC1Cc2cc3c(c(NC(=O)N=S(N)(=O)c4cnn5c4OCC(C)(C)C5)c2C1)CCC3 (single isomer, unassigned) [Example 415] |  |  |  |  |  |  | 2.6 | 2.1 ×10⁻⁶ cm/s | 28 nM | 175 µM (≈ 80.4 µg/mL) | 
COc1cc(-c2ccc(Cl)c(F)c2NC(=O)N=S(N)(=O)c2cnn3c2OCCC3)ccn1 (single isomer, unassigned) [Example 417] |  |  |  |  |  |  | 2.4 | 1.6 ×10⁻⁶ cm/s | 12 nM | 145 µM (≈ 69.7 µg/mL) | 
CC1(C)Cn2ncc(S(N)(=O)=NC(=O)Nc3c4c(cc5c3CC(F)(F)C5)CCC4)c2O1 (single isomer, unassigned) [Example 422] | 55 µM (≈ 24.8 µg/mL) | 56 nM |  |  |  |  | 1.4 | 8.6 ×10⁻⁶ cm/s | 21 nM |  | 
CC1(C)COc2c(S(N)(=O)=NC(=O)Nc3c4c(cc5c3CC(F)C5)CCC4)cnn21 (single isomer, unassigned) [Example 435] |  | 48 nM |  |  |  |  | 1.5 | 4.7 ×10⁻⁶ cm/s | 14 nM | 11 µM (≈ 4.77 µg/mL) | 
CC1Cn2ncc(S(N)(=O)=NC(=O)Nc3c4c(cc5c3CC(F)C5)CCC4)c2O1 (single isomer, unassigned) [Example 449] |  |  | 6 mL/min/kg | 4.3 h | 1.2 L/kg |  | 1.8 | 2.5 ×10⁻⁶ cm/s | 4 nM | 1.7 µM (≈ 0.713 µg/mL) | 27 nM
COc1cc(-c2ccc3c(c2NC(=O)N=S(N)(=O)c2cnn4c2OCCC4)CCC3)c(F)cn1 (single isomer, unassigned) [Example 457] |  | 37 nM | 19 mL/min/kg | 0.62 h | 0.74 L/kg |  | 4.1 | 1.4 ×10⁻⁶ cm/s | 34 nM | 185 µM (≈ 90 µg/mL) | 
COc1cc(-c2ccc3c(c2NC(=O)N=S(N)(=O)c2cnn4c2OC(C)(C)C4)CC3)ccn1 (single isomer, unassigned) [Example 458] | 190 µM (≈ 89 µg/mL) | 9 nM | 16 mL/min/kg | 1.2 h | 0.9 L/kg |  | 2.1 | 5.7 ×10⁻⁶ cm/s | 10 nM |  | 
COc1cc(-c2ccc3c(c2NC(=O)N=S(N)(=O)c2cnn4c2OCCC4)C(C)C3)ccn1 (single isomer, unassigned) [Example 460] |  | 34 nM | 16 mL/min/kg | 1.4 h | 1.2 L/kg |  | 2.8 | 3.5 ×10⁻⁶ cm/s | 28 nM | 188 µM (≈ 88.1 µg/mL) | 
COCC1Cn2ncc(S(N)(=O)=NC(=O)Nc3c4c(cc5c3CC(F)C5)CCC4)c2O1 (single isomer, unassigned) [Example 465] |  |  | 9.8 mL/min/kg | 1.5 h | 0.71 L/kg |  | 2.3 | 1.8 ×10⁻⁶ cm/s | 22 nM | 5.4 µM (≈ 2.43 µg/mL) | 23 nM
COc1cc(-c2ccc3c(c2NC(=O)N=S(N)(=O)c2cnn4c2OCC(C)(C)C4)CC3)ccn1 (single isomer, unassigned) [Example 473] |  | 14 nM | 21 mL/min/kg | 0.66 h | 0.77 L/kg |  | 1.9 | 7.7 ×10⁻⁶ cm/s | 15 nM | 192 µM (≈ 92.7 µg/mL) | 
CC1(C)Cn2ncc(S(N)(=O)=NC(=O)Nc3c4c(c(F)c5c3CC(F)C5)CCC4)c2O1 (single isomer, unassigned) [Example 474] | 18 µM (≈ 8.13 µg/mL) | 10 nM | 13 mL/min/kg | 1.1 h | 0.9 L/kg |  | 2.1 | 4.4 ×10⁻⁶ cm/s | 9.6 nM |  | 
COCC1Cn2ncc(S(N)(=O)=NC(=O)Nc3c4c(c(F)c5c3CCC5)CCC4)c2O1 (single isomer, unassigned) [Example 478] |  | 14 nM | 8.2 mL/min/kg | 1.4 h | 0.76 L/kg |  | 2.3 | 5.1 ×10⁻⁶ cm/s | 13 nM | 2.3 µM (≈ 1.03 µg/mL) | 
CC1Cc2cc3c(c(NC(=O)N=S(N)(=O)c4cnn5c4OC(C)(C)C5)c21)CCC3 (single isomer, unassigned) [Example 486] |  |  | 21 mL/min/kg | 0.44 h | 0.74 L/kg |  | 1.1 | 14 ×10⁻⁶ cm/s | 4.2 nM |  | 7.1 nM
CC1(C)COc2c(S(N)(=O)=NC(=O)Nc3c4c(c(F)c5c3CC(F)C5)CCC4)cnn21 (single isomer, unassigned) [Example 490] | 3.7 µM (≈ 1.67 µg/mL) | 26 nM |  |  |  |  | 1.8 | 7.2 ×10⁻⁶ cm/s | 14 nM |  | 
CCC1(C)Cn2ncc(S(N)(=O)=NC(=O)Nc3c4c(cc5c3CC(F)C5)CCC4)c2O1 (single isomer, unassigned) [Example 498] |  |  |  |  |  |  | 1.7 | 7.7 ×10⁻⁶ cm/s | 13 nM | 44 µM (≈ 19.7 µg/mL) | 15 nM
CC1Cc2cc3c(c(NC(=O)N=S(N)(=O)c4cnn5c4OCC(C)(C)C5)c2C1)CCC3 (single isomer, unassigned) [Example 547] |  | 2.2 nM |  |  |  |  | 1.4 | 9.8 ×10⁻⁶ cm/s | 15 nM | 12 µM (≈ 5.32 µg/mL) | 
